Experimental data: patent US20260001914A1, “MACROCYCLIC PEPTIDES TARGETING KRAS” (Merck Sharp & Dohme LLC, priority 2022, published 2026)
*1 amine or outer side, *2 acyl side, *3 side chain or, on linkers, in order; H or OH if unused. Where a SMILES comes first, the peptide text is derived from it. Bridges are numbered along the chain shown (N, C = ends). [ ]: non-standard residue; d: D form. X22 = CNC(=N)N(C)CCC[C@@H](C(=O)[*:2])N(C)[*:1]; Ala(pyrimidin-5-yl) = N[C@@H](Cc1cncnc1)C(=O)O; Ala(thiazol-5-yl) = N[C@@H](Cc1cncs1)C(=O)O; NMe3Pal(5-F) = CN[C@@H](Cc1cncc(F)c1)C(=O)O; NMePhe(3-Me) = CN[C@@H](Cc1cccc(C)c1)C(=O)O; X39 = CN([C@@H](Cc1cccnc1F)C(=O)[*:2])[*:1]; X14 = O=C([C@H](Cc1c(F)cncc1F)N[*:1])[*:2]; NMeAha = CN[C@@H](CCN=[N+]=[N-])C(=O)O; Nle(5,5-F2) = CC(F)(F)CC[C@H](N)C(=O)O; Phe(4-F) = N[C@@H](Cc1ccc(F)cc1)C(=O)O; NHCH2CH2SCH2CO = O=C(CSCCN[*:1])[*:2]; Phe(2-F) = N[C@@H](Cc1ccccc1F)C(=O)O; NMe3Pal = CN[C@@H](Cc1cccnc1)C(=O)O; X1 = O=C(C12CC(CN[*:1])(C1)C2)[*:2]; X56 = O=C(C12CC(N[*:1])(C1)C2)[*:2]; NMeAad = CN[C@@H](CCCC(=O)O)C(=O)O; Ala(cPr) = N[C@@H](CC1CC1)C(=O)O; NMeF = CN[C@@H](Cc1ccccc1)C(=O)O; PhLac = O=C(O)[C@@H](O)Cc1ccccc1; 3Pal = N[C@@H](Cc1cccnc1)C(=O)O; d3Pal = N[C@H](Cc1cccnc1)C(=O)O; Ahp(2) = CCCCC[C@H](N)C(=O)O; Cba = N[C@@H](CC1CCC1)C(=O)O; hLeu = CC(C)CC[C@H](N)C(=O)O; hSer = N[C@@H](CCO)C(=O)O; αMeC = C[C@](N)(CS)C(=O)O; NMeA = CN[C@@H](C)C(=O)O; Nle = CCCC[C@H](N)C(=O)O

Each molecule was assayed against KRAS-G12D protein (Homo sapiens, UniProt P01116, G12D) (assay: SOS-mediated nucleotide exchange assay (BODIPY-GDP / Tb-streptavidin TR-FRET)).
Assay type: biochemical

KRAS-G12D protein, sequence (P01116 1-188 isoform P01116-2 G12D): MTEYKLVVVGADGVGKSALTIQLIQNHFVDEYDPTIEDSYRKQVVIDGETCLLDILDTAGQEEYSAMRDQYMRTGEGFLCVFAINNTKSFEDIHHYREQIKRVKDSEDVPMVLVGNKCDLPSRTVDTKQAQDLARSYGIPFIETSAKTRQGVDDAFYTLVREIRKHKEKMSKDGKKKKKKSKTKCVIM

Question: `CCCC[C@@H]1NC(=O)[C@H](Cc2cccnc2)NC(=O)[C@H](CCCNC(=N)N)NC(=O)[C@H](Cc2ccccc2)NC(=O)CSC[C@@](C)(C(N)=O)NC(=O)[C@H](Cc2ccccc2)N(C)C(=O)[C@H](CCCC)NC(=O)[C@H](Cc2ccccc2F)NC1=O` [compound 160, cyclo(F-R-3Pal-Nle-Phe2F-Nle-NMeF-aMeCl-ClAc)] ({CH2CO}-FR[3Pal][Nle][Phe(2-F)][Nle][NMeF][αMeC]-NH2; thioether N-8) was tested. Which EC50 did it give?
Answer: 12.8 nM

Question: `CCCC[C@@H]1NC(=O)[C@H](Cc2ccccc2F)NC(=O)[C@H](CC2CCC2)NC(=O)[C@@H](Cc2cccnc2)NC(=O)[C@H](CCCNC(=N)N)NC(=O)[C@H](Cc2ccccc2)NC(=O)C23CC(C2)(C3)NC(=O)[C@H](Cc2cccnc2)N(C)C1=O` [compound 108, cyclo(F-R-d3Pal-cBuA-Phe2F-Nle-NMe3Pal-BCP)] (cyclo(FR[d3Pal][Cba][Phe(2-F)][Nle][NMe3Pal][X56])) was tested. Which EC50 did it give?
Answer: 1140 nM

Question: How did the EC50 turn out when `CCCC[C@@H]1NC(=O)[C@H](Cc2cccnc2)NC(=O)[C@H](CCN=[N+]=[N-])N(C)C(=O)[C@H](Cc2ccccc2)NC(=O)C23CC(CNC(=O)[C@H](Cc4cccnc4)N(C)C(=O)[C@H](CCCC)NC(=O)[C@H](Cc4ccccc4F)NC1=O)(C2)C3` [compound 245, cyclo(F-NMeDabN3-3Pal-Nle-Phe2F-Nle-NMe3Pal-amBCP)] (cyclo(F[NMeAha][3Pal][Nle][Phe(2-F)][Nle][NMe3Pal][X1])) was run?
Answer: 267 nM

Question: How did the EC50 turn out when `CCCCC[C@@H]1NC(=O)[C@H](Cc2ccc(OC)cc2)NC(=O)[C@H](CC2CCC2)NC(=O)[C@H](Cc2cncs2)NC(=O)[C@H](CCCNC(=N)N)NC(=O)[C@H](Cc2ccccc2)NC(=O)CSC[C@@](C)(C(N)=O)NC(=O)[C@H](Cc2ccccc2)N(C)C1=O` [compound 363, cyclo(F-R-TZAla-cBuA-TyrOMe-Ahp-NMeF-aMeCl-ClAc)] ({CH2CO}-FR[Ala(thiazol-5-yl)][Cba]Y(Me)[Ahp(2)][NMeF][αMeC]-NH2; thioether N-8) was run?
Answer: 13.2 nM

Question: How did the EC50 turn out when `CC(C)CC[C@@H]1NC(=O)[C@H](Cc2ccccc2F)NC(=O)[C@H](CC2CC2)NC(=O)[C@H](Cc2cncnc2)NC(=O)[C@H](C)N(C)C(=O)[C@H](Cc2ccccc2)OC(=O)C23CC(CNC(=O)[C@H](Cc4cncc(F)c4)N(C)C1=O)(C2)C3` [compound 282, cyclo(FLac-NMeA-PyrimAla-cPrA-Phe2F-hL-NMe3Pal5F-amBCP)] (cyclo([Ala(cPr)][Phe(2-F)][hLeu][NMe3Pal(5-F)][X1][PhLac][NMeA][Ala(pyrimidin-5-yl)])) was run?
Answer: 2 nM

Question: `CCCCC[C@@H]1NC(=O)[C@H](Cc2ccc(O)cc2)NC(=O)[C@H](CC(C)C)NC(=O)[C@H](Cc2ccc(O)cc2)NC(=O)[C@H](CCCNC(=N)N)NC(=O)[C@H](Cc2ccccc2)NC(=O)CSC[C@@H](C(=O)NCC(=O)N[C@@H](CCCCN)C(=O)N[C@@H](CCCCN)C(N)=O)NC(=O)[C@H](Cc2ccccc2)N(C)C1=O` [compound 56, cyclo(F-R-Y-L-Y-Ahp-NMeF-C2-ClAc)] ({CH2CO}-FRYLY[Ahp(2)][NMeF]CGKK-NH2; thioether N-8) was tested. Which EC50 did it give?
Answer: 534 nM

Question: `CC(C)CC[C@@H]1NC(=O)[C@H](Cc2c(F)cncc2F)NC(=O)[C@H](CC2CC2)NC(=O)[C@H](Cc2cncnc2)NC(=O)[C@H](C)N(C)C(=O)[C@H](Cc2ccccc2)OC(=O)C23CC(CNC(=O)[C@H](Cc4ccccc4)N(C)C1=O)(C2)C3` [compound 292, cyclo(FLac-NMeA-PyrimAla-cPrA-4Pal26F2-hL-NMeF-amBCP)] (cyclo([Ala(cPr)][X14][hLeu][NMeF][X1][PhLac][NMeA][Ala(pyrimidin-5-yl)])) was tested. Which EC50 did it give?
Answer: 64 nM

Question: `CCCC[C@@H]1NC(=O)[C@H](Cc2cccnc2)NC(=O)[C@H](CCCN(C)C(=N)NC)N(C)C(=O)[C@H](Cc2ccccc2)OC(=O)CSC[C@@](C)(C(N)=O)NC(=O)[C@H](Cc2cccnc2)N(C)C(=O)[C@H](CCCC)NC(=O)[C@H](Cc2ccccc2F)NC1=O` [compound 396, cyclo(FLac-NMeArg1MeMe-3Pal-Nle-Phe2F-Nle-NMe3Pal-aMeCl-ClAc)] ({CH2CO}-[PhLac][X22][3Pal][Nle][Phe(2-F)][Nle][NMe3Pal][αMeC]-NH2; thioether N-8) was tested. Which EC50 did it give?
Answer: 1.8 nM

Question: How did the EC50 turn out when `Cc1cccc(C[C@H]2C(=O)NCC34CC(C3)(C4)C(=O)O[C@@H](Cc3ccccc3)C(=O)N(C)[C@@H](C)C(=O)N[C@@H](Cc3cncnc3)C(=O)N[C@@H](CC3CC3)C(=O)N[C@@H](Cc3ccccc3F)C(=O)N[C@@H](CCC(C)(F)F)C(=O)N2C)c1` [compound 275, cyclo(FLac-NMeA-PyrimAla-cPrA-Phe2F-Nle3F2-NMePhe3Me-amBCP)] (cyclo([Ala(cPr)][Phe(2-F)][Nle(5,5-F2)][NMePhe(3-Me)][X1][PhLac][NMeA][Ala(pyrimidin-5-yl)])) was run?
Answer: 1 nM

Question: For `CC(C)CC[C@@H]1NC(=O)[C@H](Cc2ccccc2F)NC(=O)[C@H](CC2CC2)NC(=O)[C@H](Cc2cncnc2)NC(=O)[C@H](C)N(C)C(=O)[C@H](Cc2ccccc2)OC(=O)C23CC(CNC(=O)[C@H](Cc4cccnc4F)N(C)C1=O)(C2)C3` [compound 336, cyclo(FLac-NMeA-PyrimAla-cPrA-Phe2F-hL-NMe3Pal2F-amBCP)] (cyclo([Ala(cPr)][Phe(2-F)][hLeu][X39][X1][PhLac][NMeA][Ala(pyrimidin-5-yl)])), which EC50 is on record?
Answer: 5 nM

Question: How did the EC50 turn out when `CCCC[C@@H]1NC(=O)[C@H](Cc2ccc(O)cc2)NC(=O)[C@H](CC(C)C)NC(=O)[C@H](Cc2ccc(O)cc2)NC(=O)[C@H](CCCNC(=N)N)NC(=O)[C@H](Cc2ccc(F)cc2)NC(=O)CSCCNC(=O)[C@H](Cc2ccccc2)N(C)C1=O` [compound 75, cyclo(Phe4F-R-Y-L-Y-Nle-NMeF-Cysteamine-ClAc)] (cyclo(LY[Nle][NMeF][NHCH2CH2SCH2CO][Phe(4-F)]RY)) was run?
Answer: 2510 nM

Question: With `CCCC[C@@H]1NC(=O)[C@H](Cc2ccccc2F)NC(=O)[C@H](CC2CCC2)NC(=O)[C@H](CCO)NC(=O)[C@H](CCCNC(=N)N)NC(=O)[C@H](Cc2ccccc2)NC(=O)CSC[C@@](C)(C(N)=O)NC(=O)[C@H](Cc2ccccc2)N(C)C1=O` [compound 50, cyclo(F-R-hS-cBuA-Phe2F-Nle-NMeF-aMeCl-ClAc)] ({CH2CO}-FR[hSer][Cba][Phe(2-F)][Nle][NMeF][αMeC]-NH2; thioether N-8) as the molecule, how does the EC50 read?
Answer: 503 nM

Question: How did the EC50 turn out when `CCCC[C@@H]1NC(=O)[C@H](Cc2cccnc2)NC(=O)[C@H](CCCC(=O)N(C)C)N(C)C(=O)[C@H](Cc2ccccc2)OC(=O)C23CC(CNC(=O)[C@H](Cc4cccnc4)N(C)C(=O)[C@H](CCCC)NC(=O)[C@H](Cc4ccccc4F)NC1=O)(C2)C3` [compound 408, cyclo(FLac-hQdm-3Pal-Nle-Phe2F-Nle-NMe3Pal-amBCP)] (cyclo([3Pal][Nle][Phe(2-F)][Nle][NMe3Pal][X1][PhLac][NMeAad](NMe2))) was run?
Answer: 161 nM

Question: How did the EC50 turn out when `CCCC[C@@H]1NC(=O)[C@H](Cc2cncnc2)NC(=O)[C@H](CCN=[N+]=[N-])N(C)C(=O)[C@H](Cc2ccccc2)OC(=O)C23CC(CNC(=O)[C@H](Cc4cccnc4)N(C)C(=O)[C@H](CCCC)NC(=O)[C@H](Cc4ccccc4F)NC1=O)(C2)C3` [compound 242, cyclo(FLac-NMeDabN3-PyrimAla-Nle-Phe2F-Nle-NMe3Pal-amBCP)] (cyclo([NMe3Pal][X1][PhLac][NMeAha][Ala(pyrimidin-5-yl)][Nle][Phe(2-F)][Nle])) was run?
Answer: 80.9 nM

Question: Which EC50 does the source give for `CCCC[C@@H]1NC(=O)[C@H](CCCCN)NC(=O)[C@H](CCCNC(=N)N)NC(=O)[C@H](C(c2ccccc2)c2ccccc2)NC(=O)CSC[C@H](C(N)=O)NC(=O)[C@H](Cc2ccccc2)N(C)C(=O)[C@H](CCCC)NC(=O)[C@H](Cc2ccc(O)cc2)NC1=O` [compound 149, cyclo(Dip-R-K-Nle-Y-Nle-NMeF-dCl-ClAc)] here?
Answer: 1030 nM
